Experimental data reported in patent US20260200849A1, “CATIONIC LIPIDS AND PREPARATION METHOD THEREOF” (RiboX Therapeutics HK Limited, priority 2024, published 2026).
Where “and” joins values, the source holds several entries; their conditions need not be identical. Equal values may be shown once. Read-outs that look alike come from different tables or passages of the source.

Experiments:
[1] = system: Hep G2 cells; assay: In vitro toxicity: Hep G2 cell viability by CellTiter-Glo; type: cell-based; details: 72 hours post transfection, cell only = 100%
Protocol: 2E5 Hep G2 cells were transfected with 1 μg/mL RNA-LNPs. At 72 hours post transfection, cell viability (2-well repeat) was determined with the CellTiter-Glo® reagent kit, according to the kit protocol, measured by a luminometer. Cell only as control (100%).
The cell viability was calculated according to the following formula: […]

[2] = system: Balb/c mice; assay: In vivo expression by IV, 0.05 mg/kg luciferase RNA-LNPs, IVIS luminescence; details: female Balb/c mice, 0.05 mg*kg−1 intravenous; for Liver (p/s) (Mean) / Spleen (p/s) (Mean) / Whole body (p/s) (Mean): Formulation No. 001, RNA No. 331, 24-hours post injection
Outline: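 IVIS bioluminescence was read after IP luciferin (15 mg/ml): whole-body at 24 and 72 h, or whole-body/liver/spleen at 24 h. Dosing was a single IV injection of 0.05 mg*kg−1 RNA-LNPs encoding firefly luciferase into 7-8 week old female Balb/c mice, N=3.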

[3] = system: injection site skin; assay: In vivo tolerability after intradermal injection: H&E staining of injection site skin; parameters: species or system C57BL/6J mice; key to Infiltration, mononuclear cells, dermis/subcutaneous, focal, Grade / Edema, subcutaneous, focal, Grade / Erosion, focal, Grade / Skin, Grade: 1==minimal; 2=mild; 3=moderate; 4=marked; 5=severe; N=Normal; NA=Not applicable; —=No data; details: intradermal 0.15 mg/kg, 72 h, Formulation 001, RNA 331
Protocol: 7-8 week old, female C57BL/6J mice (N=3) were injected with 0.15 mg*kg−1 of RNA-LNIPs encoding for firefly-luciferase by intradermal injection. At 72-hours post injection, injection site skin from each animal was collected in 10% formalin, for H&E staining. PBS group (N=2) as control. (Note: 1==minimal, 2=mild, 3=moderate, 4=marked, 5=severe; N=Normal; NA=Not applicable; —=No data)

[4] = LNP size and polydispersity index (PDI) by dynamic light scattering (Zetasizer); type: physicochemical; details: for Size (nm): RNA No. 331
Protocol: (§1) The LNP size and polydispersity index (PDI), determined by dynamic light scattering (DLS), and zeta potential were measured by a Zetasizer machine (Malvern). RNA concentration and encapsulation efficacy (EE %) were analyzed by the Quant-IT Ribogreen kit by calculating the percentage encapsulation at 100%—(RNA-LNPs/RNA-LNPs with Triton X-100).

[5] = RNA encapsulation efficacy (EE %) by Quant-IT Ribogreen kit; type: physicochemical; details: LNP
Protocol: as §1

[6] = system: Hep G2 cells; assay: In vitro expression: luciferase activity in Hep G2 cells transfected with RNA-LNPs; type: cell-based; details: 100 ng/mL RNA-LNPs, 72 hours post transfection
Protocol: 2E5 Hep G2 cells were transfected with 100 ng/mL of RNA-LNPs encoding for firefly-luciferase. At 72 hours post transfection, the cells were washed and lysed. The luciferase expression (2-well repeat) was determined in the cell lysates with the luciferase assay reagent kit (Promega), according to the kit protocol, luciferase activity was measured by a luminometer.

[7] = system: C57BL/6J mice; assay: In vivo expression by ID, whole-body/injection site skin/lymph node luminescence; details: intradermal 0.15 mg/kg, 72 h post injection, female C57BL/6J mice N=3, Formulation 001, RNA 331
Protocol: 7-8 week old, female C57BL/6J mice (N=3) were injected with 0.15 mg*kg−1 of RNA-LNPs encoding for firefly-luciferase by intradermal injection. At 72-hours post injection, animals were intraperitoneally injected with 15 mg/mi of Luciferin substrate and whole-body/injection site skin/lymph node luminescence were determined by a bioluminescent in vivo imaging system (IVIS).

[8] = In vivo lipid metabolism by IV: ionizable lipid concentration in plasma and liver by LC-MS/MS; parameters: species or system Sprague-Dawley (SD) rats; details: IV 0.15 mg/kg RNA-LNPs (hEPO), male SD rats, individual animals N=3; for concentration at 6 h: male, Sprague-Dawley, rat, iv, 0.15 mg/kg
Outline: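 Male SD rats, 7-8 weeks old (N=3), given 0.15 mg*kg−1 hEPO-encoding RNA-LNPs IV. Plasma sampled at 1, 6, 96 and 168 h and liver at 6 and 168 h terminally; ionizable lipid quantified by LC-MS/MS, LLOQ 1 ng/mL plasma, 11 ng/g liver.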

[9] = system: C57BL/6J mice; assay: In vivo expression by IV, 1.0 mg/kg luciferase RNA-LNPs, whole-body and organ IVIS luminescence; details: Formulation No. 001, RNA No. 331; male C57BL/6J mice, 1.0 mg*kg−1 intravenous, 24-hours post injection
Outline: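 Male C57BL/6J mice, 6-8 weeks old (N=3), received 1.0 mg*kg−1 firefly-luciferase RNA-LNPs IV. At 24 h post-dose, luciferin (15 mg/ml) was given IP, and whole-body, liver, spleen, kidney, small and large intestine luminescence was imaged by IVIS.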

[10] = system: IL-6; assay: In vivo tolerability by IV: serum IL-6 by Luminex; parameters: species or system C57BL/6J mice; details: Formulation No. 001, RNA No. 331, male C57BL/6J mice, 1.0 mg*kg/1 intravenous; for IL-6 at 2 h: 2 hours post injection; for IL-6 at 24 h: 24 hours post injection
Outline: (§2)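 Male C57BL/6J mice aged 6-8 weeks (N=3) received 1.0 mg*kg−1 firefly-luciferase RNA-LNPs intravenously, with PBS as negative control. Serum taken at 2 and 24 h post-injection was assayed for MCP-1 and IL-6 by Luminex.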

[11] = system: MCP-1; assay: In vivo tolerability by IV: serum MCP-1 by Luminex; parameters: species or system C57BL/6J mice; details: Formulation No. 001, RNA No. 331, male C57BL/6J mice, 1.0 mg*kg/1 intravenous; for MCP-1 at 2 h: 2 hours post injection; for MCP-1 at 24 h: 24 hours post injection
Outline: as §2

[12] = Formulation No. 001, RNA No. 331
[13] = Formulation No. 010, RNA No. 331
[14] = liver, 6 h post injection, read-out: Liver (ng/g), ionizable lipid concentration
[15] = Formulation No. 001, RNA No. 331, 1 μg/mL RNA-LNPs
[16] = Formulation No. 001 (Ionizable lipid:DSPC:cholesterol:DMG-PEG2000 = 50:10:38.5:1.5, N/P 6)
[17] = Formulation No. 001, RNA No. 019 (hEPO)
[18] = Formulation No. 001, RNA No. 331 (firefly-luciferase)

CCCCC/C=C\C/C=C\CCCCCCCC(=O)NC(COC(=O)NCCN1CCCCCC1)C(=O)OCCCCCC(=O)OCC(CCCCCCCC)CCCCCCCCCC (stereo not drawn) [Lipid 729]
In vitro cell viability (%) (Mean) ([1]; 1 μg/mL RNA-LNPs, Formulation 001, RNA 331): 65.07%
In vitro cell viability (%) (Mean) ([1]; Formulation No. 010, RNA No. 331, 1 μg/mL RNA-LNPs): 80.55%
Whole body at 24 h (p/s) (Mean) ([2]; Formulation No. 010, RNA No. 331, 24 hours post injection): 1.86E+08 p/s
Whole body at 72 h (p/s) (Mean) ([2]; Formulation No. 010, RNA No. 331, 72 hours post injection): 4.99E+07 p/s
Edema, subcutaneous, focal, Grade ([3]; per animal): 1 (2×) and —
Erosion, focal, Grade ([3]; per animal): —
Infiltration, mononuclear cells, dermis/subcutaneous, focal, Grade ([3]; per animal): 1
Total score ([3]; sum of lesion grades of the group (N=3)): 5
PDI [4, 12]: 0.08
Size [4, 12]: 71.29 nm
Size (nm) ([4]; Formulation No. 010 (Ionizable lipid:DSPC:cholesterol:DSPE-PEG2000 = 38:30:30:2, N/P 6)): 57.90 nm
PDI [4, 13]: 0.10
EE (%) [5, 12]: 95.62%
EE (%) [5, 13]: 95.94%
In vitro Expression (Mean) ([6]; Formulation 001, RNA 331): 1.64E+05
In vitro Expression (Mean) ([6]; Formulation No. 010, RNA No. 331 (firefly-luciferase)): 3.44E+05
Injection site Skin (p/s) [7]: 1.33E+07 p/s
Lymph node (p/s) [7]: 1.42E+06 p/s
Whole body (p/s) [7]: 6.76E+07 p/s

CCCCCCCCCC(=O)OCCCCCCCOC(=O)C(COC(=O)NCCN1CCCCCC1)NC(=O)OCCCCCCCCOC(=O)C(CCCCCC)CCCCCCCC (stereo not drawn) [Lipid 934]
Plasma (ng/mL), ionizable lipid concentration ([8]; 1 h post injection): 3316 ng/mL and 5944 ng/mL and 9980 ng/mL
Plasma (ng/mL), ionizable lipid concentration ([8]; 6 h post injection): 691 ng/mL and 8.59 ng/mL
concentration at 6 h [8, 14]: 14 ng/g
In vitro cell viability (%) (Mean) [1, 15]: 94.29%
Liver (p/s) (Mean) [2]: 6.73E+08 p/s
Spleen (p/s) (Mean) [2]: 2.04E+08 p/s
Whole body (p/s) (Mean) [2]: 1.87E+09 p/s
Kidney (p/s) [9]: 4.10E+07 p/s
Large intestine (p/s) [9]: 1.17E+08 p/s
Liver (p/s) [9]: 1.82E+09 p/s
Small intestine (p/s) [9]: 6.60E+08 p/s
Spleen (p/s) [9]: 1.17E+09 p/s
Whole body (p/s) [9]: 2.46E+09 p/s
Size (nm) [4, 16]: 70.72 nm
PDI [4, 17]: 0.08
Size [4, 17]: 70.30 nm
PDI [4, 12]: 0.03
EE (%) [5, 17]: 93.44%
EE (%) [5, 12]: 95.74%
IL-6 at 2 h [10]: 40.7 pg/mL
IL-6 at 24 h [10]: 7.83 pg/mL
MCP-1 at 2 h [11]: 1360 pg/mL
MCP-1 at 24 h [11]: 229 pg/mL
In vitro Expression (Mean) [6, 18]: 5.28E+05

CCCCC/C=C\CCOC(=O)CCCCCOC(=O)C(COC(=O)NCCN1CCCCCC1)NC(=O)OCCCCCCCCOC(=O)C(CCCCCC)CCCCCCCC (stereo not drawn) [Lipid 955]
Plasma (ng/mL), ionizable lipid concentration ([8]; 1 h post injection): 6059 ng/mL and 23590 ng/mL and 15983 ng/mL
Liver (ng/g), ionizable lipid concentration ([8]; 6 h post injection): 703 ng/g and 396 ng/g
Plasma (ng/mL), ionizable lipid concentration ([8]; 6 h post injection): 11.9 ng/mL and 22 ng/mL
concentration at 6 h [8, 14]: 668 ng/g
concentration at 6 h ([8]; plasma, 6 h post injection, read-out: Plasma (ng/mL), ionizable lipid concentration): 17 ng/mL
In vitro cell viability (%) (Mean) [1, 15]: 95.28%
Liver (p/s) (Mean) [2]: 7.00E+08 p/s
Spleen (p/s) (Mean) [2]: 9.11E+07 p/s
Whole body (p/s) (Mean) [2]: 2.15E+09 p/s
Kidney (p/s) [9]: 4.80E+07 p/s
Large intestine (p/s) [9]: 3.44E+08 p/s
Liver (p/s) [9]: 1.98E+09 p/s
Small intestine (p/s) [9]: 6.59E+08 p/s
Spleen (p/s) [9]: 2.12E+09 p/s
Whole body (p/s) [9]: 4.06E+09 p/s
Size (nm) [4, 16]: 81.86 nm
PDI [4, 17]: 0.14
Size [4, 17]: 90.32 nm
PDI [4, 12]: 0.03
EE (%) [5, 17]: 93.99%
EE (%) [5, 12]: 91.27%
IL-6 at 2 h [10]: 1140 pg/mL
IL-6 at 24 h [10]: 7.13 pg/mL
MCP-1 at 2 h [11]: 3350 pg/mL
MCP-1 at 24 h [11]: 580 pg/mL
In vitro Expression (Mean) [6, 18]: 2.53E+05
